Data as given in ChEMBL document CHEMBL1201862, “PubChem BioAssay data set” (2004).
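Exposure lasted 48 hours, with cells grown in 96-well plates and compounds tested at five concentrations. GI50: concentration for 50% inhibition of growth.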 Calls of active or inactive are those of the source. No stated cut-off is given here; in the data, active = GI50 up to about 1.1 µM and inactive = higher.

Assays:
Test in all cases: NCI tumour cell line growth inhibition, 48 h
[1] = system: MDA-MB-435
[2] = system: A498
[3] = system: CCRF-CEM
[4] = system: Malme-3M
[5] = system: TK-10
[6] = system: UO-31
[7] = system: U-251
[8] = system: SN12C
[9] = system: M14
[10] = system: IGROV-1
[11] = system: HCT-15
[12] = system: OVCAR-8
[13] = system: HT-29
[14] = system: OVCAR-4
[15] = system: MDA-MB-231
[16] = system: RXF 393
[17] = system: OVCAR-3
[18] = system: 786-0
[19] = system: SK-OV-3

Structure (SMILES)	GI50 [1]	GI50 [2]	GI50 [3]	GI50 [4]	GI50 [5]	GI50 [6]	GI50 [7]	GI50 [8]	GI50 [9]	GI50 [10]	GI50 [11]	GI50 [12]	GI50 [13]	GI50 [14]	GI50 [15]	GI50 [16]	GI50 [17]	GI50 [18]	GI50 [19]
CC(=O)O[C@H]1C[C@H](O[C@H]2[C@@H](O)C[C@H](O[C@H]3[C@@H](O)C[C@H](O[C@H]4CC[C@@]5(C)[C@H](CC[C@@H]6[C@@H]5CC[C@]5(C)[C@@H](C7=CC(=O)OC7)CC[C@]65O)C4)O[C@@H]3C)O[C@@H]2C)O[C@H](C)[C@H]1O[C@@H]1O[C@H](CO)[C@@H](O)[C@H](O)[C@H]1O	0.034 µM (active)	0.0269 µM (active)	0.0269 µM (active)	0.0278 µM (active)	0.0174 µM (active)	0.0242 µM (active)	0.032 µM (active)	0.0243 µM (active)	0.0634 µM (active)	< 0.01 µM (active)	0.0231 µM	0.0275 µM (active)	0.0144 µM (active)	< 0.0179 µM (active)	0.256 µM (active)	0.0288 µM (active)	< 0.01 µM (active)	0.0162 µM (active)	0.0395 µM (active)
C=C1C(=O)O[C@@H]2/C=C(C)/C=C\[C@@H]3O[C@@]3(C)C[C@@H](O)C12 (stereo not given in full)	18 µM (inactive)	15.8 µM (inactive)	1.66 µM (inactive)	12.7 µM (inactive)	3.81 µM (inactive)	12.4 µM (inactive)	17.8 µM (inactive)	13.4 µM (inactive)	18.3 µM (inactive)	13 µM (inactive)	6.27 µM	17.4 µM (inactive)	10 µM (inactive)	16.3 µM (inactive)	> 10 µM (inactive)	18.7 µM (inactive)	14.1 µM (inactive)	8.69 µM (inactive)	54 µM (inactive)
O=C1/C(=C\c2ccc(F)cc2)CCOc2c1ccc1ccccc21	26.8 µM (inactive)	27.4 µM (inactive)	5.82 µM (inactive)	16.5 µM (inactive)	24.4 µM (inactive)	> 55.2 µM (inactive)	10.6 µM (inactive)	35.3 µM (inactive)	26.2 µM (inactive)		11.2 µM	12.7 µM (inactive)	17.4 µM (inactive)	15.3 µM (inactive)	14.8 µM (inactive)	13.4 µM (inactive)	8.15 µM (inactive)	23 µM (inactive)	36.6 µM (inactive)
CCOc1cc2c(NCCCN(CCO)CCO)ncnc2c(OCC)c1OCC	> 100 µM (inactive)	> 73.5 µM (inactive)	> 100 µM (inactive)	55.6 µM (inactive)	> 100 µM (inactive)	> 100 µM (inactive)	> 100 µM (inactive)	> 100 µM (inactive)	> 83.2 µM (inactive)	> 100 µM (inactive)	> 100 µM	> 100 µM (inactive)	> 65.6 µM (inactive)	> 88.5 µM (inactive)	> 93.1 µM (inactive)	> 82 µM (inactive)	> 100 µM (inactive)	> 100 µM (inactive)	> 100 µM (inactive)
COc1cc(/C=N/n2c(-c3ccccc3)n[nH]c2=O)cc(OC)c1OC	0.218 µM (active)	3.15 µM (inactive)	1.76 µM (inactive)	1.46 µM (inactive)	4.17 µM (inactive)	5.71 µM (inactive)	3.93 µM (inactive)	7.67 µM (inactive)	6.08 µM (inactive)	2.43 µM (inactive)	0.708 µM	4.81 µM (inactive)	4.39 µM (inactive)	> 26.9 µM (inactive)	19.2 µM (inactive)	4.94 µM (inactive)	4.63 µM (inactive)	3.5 µM (inactive)	2.56 µM (inactive)
O=C(O)c1ccc(S(=O)(=O)c2ccccc2[N+](=O)[O-])cc1	> 10 µM (inactive)	> 10 µM (inactive)	> 10 µM (inactive)	> 10 µM (inactive)	> 10 µM (inactive)		> 10 µM (inactive)	> 10 µM (inactive)	> 10 µM (inactive)	> 10 µM (inactive)	> 10 µM	> 10 µM (inactive)	> 10 µM (inactive)	> 10 µM (inactive)	> 10 µM (inactive)	> 10 µM (inactive)	> 10 µM (inactive)	> 10 µM (inactive)	> 10 µM (inactive)
O=C1N2CCc3c([nH]c4ccccc34)C23CC2CCCCC12S3 (stereo not given)	> 100 µM (inactive)	> 100 µM (inactive)		> 100 µM (inactive)	28.3 µM (inactive)	> 100 µM (inactive)	> 100 µM (inactive)	> 100 µM (inactive)	> 100 µM (inactive)	> 100 µM (inactive)	> 100 µM	> 100 µM (inactive)	> 100 µM (inactive)	> 100 µM (inactive)	> 100 µM (inactive)	> 100 µM (inactive)	> 100 µM (inactive)	> 100 µM (inactive)	> 100 µM (inactive)
